Reference: publication PMC7866225, “Microwave-Assisted Synthesis of (Piperidin-1-yl)quinolin-3-yl)methylene)hydrazinecarbothioamides as Potent Inhibitors of Cholinesterases: A Biochemical and In Silico Approach” (Molecules, 2021)
Values joined by “and” are separate entries in the source; they are usually repeats but may differ in a detail not shown here. Equal values may be shown once.

Tests used:
[1] = molecular target: Acetylcholinesterase (AChE) (Electrophorus electricus, UniProt O42275); assay: biochemical; settings: Ellman's method, triplicate; read-out: Acetylcholinesterase (AChE) IC50 ± SEM
Procedure: (§1) Modified Ellman’s method was adopted to investigate the inhibitory potential of newly synthesized compounds against cholinesterase enzymes. The assay protocol involved 96-well plates (100 μL per well). Each well contained 20 μL of assay buffer solution, 10 μL of test sample, and 10 μL of 0.5 U/mg of AChE (for AChE inhibition assay) or 10 μL of 3.4 U/mg of BChE (for BChE inhibition assay). This mixture was incubated at 25 °C for 10 min followed by the addition of substrate (10 μL). For AChE inhibition assay, acetylthiocholine iodide (ATCI, 1 mM) while for BChE assay, butyrylthiocholine chloride (BTCCl, 1 mM), was added. This mixture was incubated for 15 min at 37 °C. Ellman reagent (5,5′-dithio-bis(2-nitrobenzoic acid), DTNB, 3 mM) was added. […] Blank assay was also performed. All the analyses were performed in triplicate. IC50 values were also calculated for the synthesized compounds in GraphPad prism 5.0. using nonlinear regression method.

[2] = molecular target: Butyrylcholinesterase (BChE) (Equus caballus, UniProt P81908); assay: biochemical; settings: Ellman's method, triplicate; read-out: Butyrylcholinesterse (BChE) IC50 ± SEM
Procedure: as §1

[3] = In vitro cytotoxicity, MTT assay; format: cell-based; settings: human, HepG2 cells, 24 h, control = 100, read-out: Cell Viability; for viability at 24 h, 50 μg/mL: HepG2, 50 μg/mL; for viability at 24 h, 100 μg/mL: HepG2, 100 μg/mL; for viability at 24 h, 200 μg/mL: HepG2, 200 μg/mL; for viability at 24 h, 500 μg/mL: HepG2, 500 μg/mL; for viability at 24 h, 1000 μg/mL: HepG2, 1000 μg/mL
Procedure: (§2) HepG2 cell line was obtained from the cell culture laboratory established in The University of Lahore. These cell lines were preserved in cryo vials present in liquid nitrogen. Cryo vials were revived for further processing.
(§3) The cryo vials obtained from liquid nitrogen cylinder were thawed. Then HepG2 cells were cultured in the culturing flask in which DMEM-HG along with 10% fetal bovine serum (FBS), supplemented with […] (Sigma) and 100 U/mL streptomycin (Sigma) were added. Cultures were maintained in a humidified incubator supplied with 5% CO2 at 37 °C. Experiments were performed in triplicates. When cultured HepG2 cells achieved 70–80% confluence their subculturing was conducted. For splitting, the cells attached to the walls of the culturing flask were washed with 1× phosphate buffer saline (PBS) and incubated with 0.05% trypsin-EDTA until cells detached from the surface of culturing flask. The detachment of the cells was confirmed by observing the flask under the inverted microscope. A few drops of FBS were added to the flask and mixed well by stirring. The mixture was centrifuged at 2000 rpm for 5 min. After centrifugation the supernatant was removed, and pellet was resuspended. HepG2 cells were cultured onto 96-well plates for measurement of cell viability. Treatment was given for both compounds at a concentration of 0–1000 µg/mL for 24 h.
(§4) After 4 h formazan crystals were solubilized with 10% sodium dodecylsulphate (SDS) (Invitrogen Inc.) and absorbance was taken at 570 nm. Percentage viability was calculated according to the following formula:% Viable cells = ((abs sample − abs blank) / (abs control − abs blank)) × 100 (1) where abs stands for absorbance.

HepG2 cells = assay: In vitro cytotoxicity, MTT assay; format: cell-based; settings: for Status: HepG2, MTT, 0–1000 µg/mL, 24 h
Procedure: as §2, §3, §4

Chain of Acetylcholinesterase (AChE) (O42275 24-633): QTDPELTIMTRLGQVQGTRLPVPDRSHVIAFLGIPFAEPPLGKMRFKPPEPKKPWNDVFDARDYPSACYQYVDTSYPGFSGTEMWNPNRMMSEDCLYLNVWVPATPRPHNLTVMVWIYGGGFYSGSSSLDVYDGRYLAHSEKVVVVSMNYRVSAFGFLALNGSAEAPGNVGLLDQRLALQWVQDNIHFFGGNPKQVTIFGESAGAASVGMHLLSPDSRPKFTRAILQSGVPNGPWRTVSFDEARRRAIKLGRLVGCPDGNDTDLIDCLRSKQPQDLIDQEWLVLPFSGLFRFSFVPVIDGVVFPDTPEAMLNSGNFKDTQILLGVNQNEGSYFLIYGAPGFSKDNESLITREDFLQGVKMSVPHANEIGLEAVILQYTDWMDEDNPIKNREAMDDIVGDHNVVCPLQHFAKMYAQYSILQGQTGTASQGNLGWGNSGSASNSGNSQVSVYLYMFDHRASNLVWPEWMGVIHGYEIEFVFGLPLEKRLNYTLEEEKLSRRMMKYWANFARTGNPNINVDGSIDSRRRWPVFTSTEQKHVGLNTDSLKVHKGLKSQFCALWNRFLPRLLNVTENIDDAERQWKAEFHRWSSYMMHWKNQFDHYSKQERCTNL
Chain of Butyrylcholinesterase (BChE) (P81908 whole entry): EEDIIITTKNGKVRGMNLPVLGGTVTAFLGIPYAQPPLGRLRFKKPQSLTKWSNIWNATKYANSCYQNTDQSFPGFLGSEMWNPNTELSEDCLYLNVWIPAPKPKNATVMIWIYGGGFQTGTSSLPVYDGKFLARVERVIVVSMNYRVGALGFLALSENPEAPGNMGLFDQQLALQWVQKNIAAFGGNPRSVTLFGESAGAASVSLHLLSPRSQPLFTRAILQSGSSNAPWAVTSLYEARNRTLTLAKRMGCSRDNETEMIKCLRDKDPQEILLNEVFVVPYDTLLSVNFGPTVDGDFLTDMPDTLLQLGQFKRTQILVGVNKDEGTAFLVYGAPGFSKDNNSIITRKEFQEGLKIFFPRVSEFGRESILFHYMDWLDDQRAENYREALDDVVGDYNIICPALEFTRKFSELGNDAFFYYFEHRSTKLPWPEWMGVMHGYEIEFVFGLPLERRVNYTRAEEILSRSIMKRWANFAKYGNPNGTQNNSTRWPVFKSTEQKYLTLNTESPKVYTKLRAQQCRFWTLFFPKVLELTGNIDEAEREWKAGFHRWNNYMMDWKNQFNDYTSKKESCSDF

SMILES	IC50 [1]	IC50 [2]	viability at 24 h, 50 μg/mL [3]	viability at 24 h, 100 μg/mL [3]	viability at 24 h, 200 μg/mL [3]	viability at 24 h, 500 μg/mL [3]	viability at 24 h, 1000 μg/mL [3]	Status (HepG2 cells)	IC50 (HepG2 cells; HepG2, standard drug)
Cc1cccc2cc(C=NNC(N)=S)c(N3CCCCC3)nc12 [Compound 6a, 2-((8-Methyl-2-(piperidin-1-yl)quinolin-3-yl)methylene)hydrazinecarbothioamide]	36.25 ± 0.36 µM	60.02 ± 0.04 µM	82.5%	86.3%	80.6%	83.3%	77.9%	Cytotoxic	
Cc1ccc(NC(=S)NN=Cc2cc3cccc(C)c3nc2N2CCCCC2)c(C)c1 [Compound 6c, N-(2,4-Dimethylphenyl)-2-((8-methyl-2-(piperidin-1-yl)quinolin-3-yl)methylene)hydrazine carbothioamide]	39.12 ± 0.27 µM	24.59 ± 0.09 µM	87.5%	116%	154%	187%	233%	Proliferative	
Cc1ccc2nc(N3CCCCC3)c(C=NNC(=S)Nc3ccccc3)cc2c1 [Compound 5b, 2-((6-Methyl-2-(piperidin-1-yl)quinolin-3-yl)methylene)-N-phenylhydrazinecarbothioamide]	25.1 ± 0.25 µM	33.1 ± 0.09 µM	106%	107%	139%	169%	227%	Proliferative	
Cc1ccc2nc(N3CCCCC3)c(C=NNC(=S)Nc3ccccc3Cl)cc2c1 [Compound 5e, N-(2-Chlorophenyl)-2-((6-methyl-2-(piperidin-1-yl)quinolin-3-yl)methylene)hydrazine carbothioamide]	35.2 ± 0.54 µM	40.26 ± 0.17 µM	94.2%	97.2%	158%	196%	76.3%	Cytotoxic	
Cc1cccc2cc(C=NNC(=S)Nc3ccc(Cl)cc3)c(N3CCCCC3)nc12 [Compound 6g, N-(4-Chlorophenyl)-2-((8-methyl-2-(piperidin-1-yl)quinolin-3-yl)methylene)hydrazine carbothioamide]	< 20 µM and 13.8 µM	< 20 µM and 18.6 µM	113%	106%	111%	150%	214%	Proliferative	
Cc1cccc2cc(C=NNC(=S)Nc3ccccc3F)c(N3CCCCC3)nc12 [Compound 6h, N-(2-Fluorophenyl)-2-((8-methyl-2-(piperidin-1-yl)quinolin-3-yl)methylene)hydrazine carbothioamide]	40.23 ± 0.25 µM	45.12 ± 0.19 µM	100%	110%	126%	151%	202%	Proliferative	
Cc1ccc2nc(N3CCCCC3)c(C=NNC(=S)NCc3ccccc3)cc2c1 [Compound 5l, N-Benzyl-2-((6-methyl-2-(piperidin-1-yl)quinolin-3-yl)methylene)hydrazinecarbothioamide]	35.1 ± 1.2 µM	45.02 ± 0.38 µM	101%	101%	107%	109%	133%	Proliferative	
Cc1ccc2nc(N3CCCCC3)c(C=NNC(=S)Nc3ccc(Cl)cc3)cc2c1 [Compound 5g, N-(4-Chlorophenyl)-2-((6-methyl-2-(piperidin-1-yl)quinolin-3-yl)methylene)hydrazine carbothioamide]	19.85 ± 0.14 µM	23.1 ± 0.11 µM	84.3%	96.4%	94.1%	122%	135%	Proliferative	
Cc1ccc2nc(N3CCCCC3)c(C=NNC(N)=S)cc2c1 [Compound 5a, 2-((6-Methyl-2-(piperidin-1-yl)quinolin-3-yl)methylene)hydrazinecarbothioamide]	27.6 ± 0.08 µM	35.3 ± 0.01 µM	95.4%	88.9%	92.8%	95.8%	102%	Non-cytotoxic	
Cc1cccc2cc(C=NNC(=S)NCc3ccccc3)c(N3CCCCC3)nc12 [Compound 6l, N-Benzyl-2-((8-methyl-2-(piperidin-1-yl)quinolin-3-yl)methylene)hydrazinecarbothioamide]	57.25 ± 0.03 µM	41 ± 0.89 µM	103%	105%	107%	138%	157%	Proliferative	
Cc1cccc(C)c1NC(=S)NN=Cc1cc2cccc(C)c2nc1N1CCCCC1 [Compound 6d, N-(2,6-Dimethylphenyl)-2-((8-methyl-2-(piperidin-1-yl)quinolin-3-yl)methylene)hydrazine carbothioamide]	< 20 µM and 12.9 µM	< 20 µM and 17.9 µM	75%	93.9%	91.3%	129%	173%	Proliferative	
CCc1ccc(NC(=S)NN=Cc2cc3cccc(C)c3nc2N2CCCCC2)cc1 [Compound 6k, N-(4-Ethylphenyl)-2-((8-methyl-2-(piperidin-1-yl)quinolin-3-yl)methylene)hydrazine carbothioamide]	39.9 ± 0.85 µM	32.01 ± 0.31 µM	103%	105%	107%	138%	157%	Proliferative	
Cc1ccc2nc(N3CCCCC3)c(C=NNC(=S)Nc3ccccc3F)cc2c1 [Compound 5h, N-(2-Fluorophenyl)-2-((6-methyl-2-(piperidin-1-yl)quinolin-3-yl)methylene)hydrazine carbothioamide]	31.3 ± 0.37 µM	25.1 ± 0.99 µM	113%	121%	83.8%	151%	209%	Proliferative	
Cc1cccc2cc(C=NNC(=S)Nc3ccccc3Cl)c(N3CCCCC3)nc12 [Compound 6e, N-(2-Chlorophenyl)-2-((8-methyl-2-(piperidin-1-yl)quinolin-3-yl)methylene)hydrazine carbothioamide]	32.11 ± 0.15 µM	37.1 ± 0.59 µM	102%	112%	167%	180%	212%	Proliferative	
Cc1ccc2nc(N3CCCCC3)c(C=NNC(=S)Nc3c(C)cccc3C)cc2c1 [Compound 5d, N-(2,6-Dimethylphenyl)-2-((6-methyl-2-(piperidin-1-yl)quinolin-3-yl)methylene)hydrazine carbothioamide]	25.9 ± 0.96 µM	29.8 ± 1.2 µM	105%	108%	110%	134%	131%	Proliferative	
N.N.[Cl][Pt][Cl] [cisplatin, reference compound]									20 mg/L
